Data from patent US4740501A (priority 1985, dated 1988).

Tests used:
L-1210 leukemia = assay: In vivo therapy of mice inoculated intraperitoneally with L-1210 leukemia; set-up: species or system DBA/2 mice
L1210 leukemia cells [1] = system: L1210 leukemia cells
L1210 leukemia cells [2] = assay: Tumorigenicity of in vitro treated leukemia cells in BDF1 recipients; format: in vivo, BDF1 mice; details: for MST: L1210, control 10
Procedure: All in vitro PTT.119 and L-PAM treatment of cells were carried out at 37° C. in the appropriate complete growth media containing 10% or 18% sera. L1210, L1210/L-PAM and P388/L-PAM cell suspensions of 1×10^6 cells/ml were subjected to a single 15, 30 or 60 min pulse exposure to 3.75, 7.5 and 15 uM PTT.119 or L-PAM. Following treatment, media were removed by pelleting the cells at 200×g for 9 min at 5° C. Cells were then gently washed twice with fresh growth media and finally resuspended in RPMI-1630 medium with 10% FBS for in vitro cultures.
Suspensions of PTT.119 or L-PAM treated cells, and control leukemia cells were adjusted to 1×10^7 cells/ml based on tumor cell concentrations prior to drug exposure. Syngeneic female BDF1 (BALB/c×DBA/2)f, mice weighing 20 to 26 g received intraperitoneal injections of 1×10^6 cells. Mice were monitored daily throughout the 45 day examination period and were autopsied at the time of death.

L-1210 leukemia cells = assay: Bioassay of tumorigenicity of in vitro treated tumor cells in syngeneic hosts; format: in vivo, BDf1 mice; details: for MEAN SURVIVAL TIME (MST) of recipients: L-1210, control 10
Source text: Suspensions of untreated and tripeptide treated MJY-alpha mammary tumor, B-16 melanoma, and L-1210 leukemia cells were adjusted to a concentration of 1×10^7 cells/ml based on the initial tumor cell concentration before the tripeptide exposure. Tumor cells were inoculated into syngeneic hosts at a concentration of 1×10^6 cells in […]. Female BALB/c/Crgl recipients of MJY-alpha mammary tumor cells and male C57BL/6/Jx hosts receiving B16 melanoma cells were inoculated subcutaneously; BDf1 mice were given intraperitoneal injections of L-1210 cells. Subcutaneous tumors were measured along their long and short axes every 1 to 3 days; tumor size is reported as the product of the two measurements (mm^2). The examination periods for mice receiving L-1210, MJY-alpha and B-16 tumor grafts were 45, 80, and 85 days, respectively. All mice were autopsied at the time of death or sacrifice.

B-95-8 B-lymphoma = assay: Tumor cell survival (trypan blue), continuous exposure; format: cell-based, Marmorset
P HR-1 B-lymphoma = assay: as above; format: cell-based, Human
[3] = system: MJY-alpha mammary tumor cells; assay: PTT.119 induced resistance test, long-term low dose culture; format: cell-based
Hairy cell leukemia = assay: Survival of fresh human leukemic cells, continuous exposure; format: cell-based
MJY-alpha monolayers = format: cell-based
AMML = assay: Survival of fresh human leukemic cells, continuous exposure; format: cell-based
5-78 T-lymphoma = assay: Tumor cell survival (trypan blue), continuous exposure; format: cell-based, Rabbit
[4] = single dose 10, 15, and 20 mg/kg 48 hours after inoculation

Compound: CCOC(=O)[C@H](CCSC)NC(=O)[C@H](Cc1cccc(N(CCCl)CCCl)c1)NC(=O)[C@@H](N)Cc1ccc(F)cc1.Cl [PTT.119, 3-(p-fluorophenyl)-L-alanyl-3-[m-bis(2-chloroethyl)aminophenyl]-L-alanyl-L-methionine ethyl ester hydrochloride]
- mean survival time (L-1210 leukemia; single dose 10, 15, and 20 mg/kg 48 hours after 10^6 L-1210 cells i.p., from 8 days): 30 days
- apparent cure, share of treated animals (L-1210 leukemia; [4]): 30%
- increase of the mean survival time (L-1210 leukemia; [4]): 275%
- cytotoxicity lower compared to untreated L1210 cells (L1210 leukemia cells [1]): 20-30%
- dose response curves of L1210, L1210-T1 and L1210-T2 (L1210 leukemia cells [1]): no differences could be detected
- viability in continuous treatment (L1210 leukemia cells [1]): nonviable
- viability of L1210-T1 in continuous treatment (L1210 leukemia cells [1]): nonviable
- MST (L1210 leukemia cells [2]; 7.5 uM, 30 min): 21 days
- MST (L1210 leukemia cells [2]; 7.5 uM, 60 min): 32 days
- MST (L1210 leukemia cells [2]; 15 uM, 15 min): 8 days
- mice free of tumor at end of 45-day examination period (L1210 leukemia cells [2]; L1210 cells, 7.5 and 15 uM, every group): 80-100%
- MEAN SURVIVAL TIME (MST) of recipients (L-1210 leukemia cells; 1 ug/ml, 15 min): 10 days
- MEAN SURVIVAL TIME (MST) of recipients (L-1210 leukemia cells; 1 ug/ml, 30 min): 10 days
- MEAN SURVIVAL TIME (MST) of recipients (L-1210 leukemia cells; 1 ug/ml, 60 min): 11 days
- MEAN SURVIVAL TIME (MST) of recipients (L-1210 leukemia cells; 1 ug/ml, 120 min): 13 days
- MEAN SURVIVAL TIME (MST) of recipients (L-1210 leukemia cells; 5 ug/ml, 15 min): 13 days
- MEAN SURVIVAL TIME (MST) of recipients (L-1210 leukemia cells; 5 ug/ml, 30 min): 21 days
- MEAN SURVIVAL TIME (MST) of recipients (L-1210 leukemia cells; 5 ug/ml, 60 min): 32 days
- MEAN SURVIVAL TIME (MST) of recipients (L-1210 leukemia cells; 10 ug/ml, 15 min): 8 days
- ILS (increased life span) (L-1210 leukemia cells; L-1210 cells treated with 5 ug for 30 min): 110%
- ILS (increased life span) (L-1210 leukemia cells; L-1210 cells treated with 5 ug for 60 min): 220%
- tumor growth in recipient mice (L-1210 leukemia cells; L-1210 cells treated with 5 ug for 2 hr): No tumor growth
- tumor growth in recipient mice (L-1210 leukemia cells; L-1210 cells treated with 10 ug for 30 min or longer): No tumor growth
- % tumor cell survival (B-95-8 B-lymphoma; 10 ug/ml, 1 hr): 100%
- % tumor cell survival (B-95-8 B-lymphoma; 10 ug/ml, 4 hr): 100%
- % tumor cell survival (B-95-8 B-lymphoma; 10 ug/ml, 24 hr): 40%
- % tumor cell survival (B-95-8 B-lymphoma; 25 ug/ml, 1 hr): 100%
- % tumor cell survival (B-95-8 B-lymphoma; 25 ug/ml, 4 hr): 86%
- % tumor cell survival (B-95-8 B-lymphoma; 25 ug/ml, 8 hr): 49%
- % tumor cell survival (B-95-8 B-lymphoma; 25 ug/ml, 24 hr): 20%
- % tumor cell survival (B-95-8 B-lymphoma; 50 ug/ml, 1 hr): 77%
- % tumor cell survival (B-95-8 B-lymphoma; 50 ug/ml, 4 hr): 42%
- % tumor cell survival (B-95-8 B-lymphoma; 50 ug/ml, 8 hr): 26%
- % tumor cell survival (B-95-8 B-lymphoma; 50 ug/ml, 24 hr): 6%
- % tumor cell survival (P HR-1 B-lymphoma; 10 ug/ml, 1 hr): 96%
- % tumor cell survival (P HR-1 B-lymphoma; 10 ug/ml, 4 hr): 91%
- % tumor cell survival (P HR-1 B-lymphoma; 10 ug/ml, 24 hr): 75%
- % tumor cell survival (P HR-1 B-lymphoma; 25 ug/ml, 1 hr): 92%
- % tumor cell survival (P HR-1 B-lymphoma; 25 ug/ml, 4 hr): 86%
- % tumor cell survival (P HR-1 B-lymphoma; 25 ug/ml, 24 hr): 69%
- % tumor cell survival (P HR-1 B-lymphoma; 50 ug/ml, 1 hr): 93%
- % tumor cell survival (P HR-1 B-lymphoma; 50 ug/ml, 4 hr): 75%
- % tumor cell survival (P HR-1 B-lymphoma; 50 ug/ml, 24 hr): 60%
- survival of monolayers in continuous treatment ([3]; 15 uM): did not survive beyond the second passage
- dose response curves of treated lines vs previously untreated MJY-alpha cells ([3]; alpha-0.15, alpha-1.5, alpha-7.5, 8 months, 24 h challenge with 1.5-75 uM): No alteration
- % tumor cell survival (Hairy cell leukemia; 5 ug/ml, 1 hr): 100%
- % tumor cell survival (Hairy cell leukemia; 5 ug/ml, 4 hr): 80%
- % tumor cell survival (Hairy cell leukemia; 5 ug/ml, 24 hr): 34%
- % tumor cell survival (Hairy cell leukemia; 10 ug/ml, 1 hr): 100%
- % tumor cell survival (Hairy cell leukemia; 10 ug/ml, 4 hr): 71%
- % tumor cell survival (Hairy cell leukemia; 10 ug/ml, 24 hr): 81%
- % tumor cell survival (Hairy cell leukemia; 25 ug/ml, 1 hr): 92%
- % tumor cell survival (Hairy cell leukemia; 25 ug/ml, 4 hr): 71%
- % tumor cell survival (Hairy cell leukemia; 25 ug/ml, 24 hr): 12%
- % tumor cell survival (Hairy cell leukemia; 50 ug/ml, 1 hr): 37%
- % tumor cell survival (Hairy cell leukemia; 50 ug/ml, 4 hr): 21%
- % tumor cell survival (Hairy cell leukemia; 50 ug/ml, 24 hr): 7%
- reduction of viability of tumor cell layers compared to solvent (MJY-alpha monolayers): 15-20%
- % tumor cell survival (AMML; 1 ug/ml, 1 hr): 95%
- % tumor cell survival (AMML; 1 ug/ml, 4 hr): 85%
- % tumor cell survival (AMML; 1 ug/ml, 24 hr): 66%
- % tumor cell survival (AMML; 5 ug/ml, 1 hr): 50%
- % tumor cell survival (AMML; 5 ug/ml, 4 hr): 52%
- % tumor cell survival (AMML; 5 ug/ml, 24 hr): 6%
- % tumor cell survival (AMML; 10 ug/ml, 1 hr): 60%
- % tumor cell survival (AMML; 10 ug/ml, 4 hr): 41%
- % tumor cell survival (AMML; 10 ug/ml, 24 hr): 21%
- % tumor cell survival (AMML; 25 ug/ml, 1 hr): 20%
- % tumor cell survival (AMML; 25 ug/ml, 4 hr): 15%
- % tumor cell survival (AMML; 25 ug/ml, 24 hr): 14%
- % tumor cell survival (AMML; 50 ug/ml, 1 hr): 4%
- % tumor cell survival (AMML; 50 ug/ml, 4 hr): 3%
- % tumor cell survival (AMML; 50 ug/ml, 24 hr): 4%
- % tumor cell survival (5-78 T-lymphoma; 5 ug/ml, 1 hr): 100%
- % tumor cell survival (5-78 T-lymphoma; 5 ug/ml, 4 hr): 88%
- % tumor cell survival (5-78 T-lymphoma; 5 ug/ml, 24 hr): 66%
- % tumor cell survival (5-78 T-lymphoma; 10 ug/ml, 1 hr): 89%
- % tumor cell survival (5-78 T-lymphoma; 10 ug/ml, 4 hr): 61%
- % tumor cell survival (5-78 T-lymphoma; 10 ug/ml, 24 hr): 49%
- % tumor cell survival (5-78 T-lymphoma; 25 ug/ml, 1 hr): 75%
- % tumor cell survival (5-78 T-lymphoma; 25 ug/ml, 4 hr): 32%
- % tumor cell survival (5-78 T-lymphoma; 25 ug/ml, 8 hr): 14%
- % tumor cell survival (5-78 T-lymphoma; 25 ug/ml, 24 hr): 6%
- % tumor cell survival (5-78 T-lymphoma; 50 ug/ml, 1 hr): 57%
- % tumor cell survival (5-78 T-lymphoma; 50 ug/ml, 4 hr): 4%
- % tumor cell survival (5-78 T-lymphoma; 50 ug/ml, 24 hr): 2%
